In US6413990B1, “Arylsulphonamide-substituted benzimidazoles having tryptase-inhibiting activity” (Boehringer Ingelheim Pharma KG, priority 1999, dated 2002):
Structures can show the parent of a compound that is named as a salt.

tested on: not given; assay: not given; conditions: not given

Q: With CCN(CC)CCN(c1ccc2c(c1)nc(CCc1ccc(C(=N)N)cc1)n2C)S(=O)(=O)c1ccc(C(=O)O)cc1 (as salt: fumarate) [Example 14, N-{2-[2-(4-amidinophenyl)-ethyl]-1-methyl-benzimidazol-5-yl}-N-diethylaminoethyl-[4-carboxy-benzenesulphonamide]-fumarate] as the molecule, how does the melting point read?
A: The melting point was 200 to 204 °C.

Q: With CCN(CC)CCN(c1ccc2c(c1)nc(CCc1ccc(C(=N)N)cc1)n2C)S(=O)(=O)c1ccc(N)cc1 (as salt: hydrochloride) [Example 8, N-{2-[2-(4-amidinophenyl)-ethyl]-1-methyl-benzimidazol-5-yl}-N-diethylaminoethyl-(4-amino-benzenesulphonamide)-tetrahydrochloride] as the molecule, how does the melting point read?
A: Its melting point is 190 to 205 °C.

Q: With CCN(CC)CCN(c1ccc2c(c1)nc(CCc1ccc(C(=N)N)cc1)n2C)S(=O)(=O)c1ccc(OC)cc1 (as salt: hydrochloride) [Example 12, N-{2-[2-(4-amidinophenyl)-ethyl]-1-methyl-benzimidazol-5-yl}-N-diethylaminoethyl-(4-methoxy-benzenesulphonamide)-trihydrochloride] as the molecule, how does the melting point read?
A: The melting point was 190 to 200 °C.

Q: Which melting point does the source give for CN(C)c1cccc2c(S(=O)(=O)N(C)c3ccc4c(c3)nc(CCc3ccc(C(=N)N)cc3)n4C)cccc12 (as salt: hydrochloride) [Example 13, N-{2-[2-(4-amidinophenyl)-ethyl]-1-methyl-benzimidazol-5-yl}-N-methyl-(dansylamide)-hydrochloride] here?
A: The melting point was 222 to 225 °C.

molecular target: T1, rh beta tryptase (Homo sapiens, UniProt Q15661); assay: tryptase inhibition test (cleavage of N-p-tosyl-Gly-Pro-Lys-para-nitroaniline, p-nitroaniline measured at 405 nm); format: biochemical; conditions: Tris HCl buffer pH 7.4 with calcium and heparin, 37° C., substrate 0.6 mM, 5 minutes pre-incubation, 5 minutes incubation
T1 construct: purchased Promega
T1 sequence (Q15661 31-275): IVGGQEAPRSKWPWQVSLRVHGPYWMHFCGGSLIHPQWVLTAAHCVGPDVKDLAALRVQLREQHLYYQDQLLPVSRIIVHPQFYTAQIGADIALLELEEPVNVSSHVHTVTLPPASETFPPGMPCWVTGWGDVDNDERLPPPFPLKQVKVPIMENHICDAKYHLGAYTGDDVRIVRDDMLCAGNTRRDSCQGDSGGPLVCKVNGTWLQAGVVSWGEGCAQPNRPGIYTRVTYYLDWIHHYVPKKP
Protocol: The compounds according to the invention are characterised by their tryptase-inhibiting activity. This ability to inhibit tryptase was investigated using the test described below.
The measurement is carried out in Tris HCl buffer (100 mM), which additionally contains calcium (5 mM) and heparin ([…]), at pH 7.4. The standard used is rh beta tryptase which may be obtained commercially from Promega, for example. The substrate used is N-p-tosyl-Gly-Pro-Lys-para-nitroaniline in a concentration of 0.6 mM. The substrate is digested with tryptase to form p-nitroaniline which can be measured at 405 nm. Usually, an incubation period of 5 minutes and an incubation temperature of 37° C. are chosen. The enzyme activity used is 0.91 U/ml. The measurements are carried out in an Autoanalyser (Cobas Bio) made by Hofmann LaRoche. The potential inhibitory substances are used in concentrations of 10 μM in the screening, the inhibition of the tryptase being given in percent. The IC50 is determined at over 70% inhibition (concentration at which 50% of the enzyme activity is inhibited). After 5 minutes pre-incubation of the potential inhibitory substances, the substrate is added to start the reaction, the formation of p-nitroaniline being taken as a measurement of the enzyme activity after 5 minutes, after testing the linearity.
The data obtained after carrying out the tests described above (IC50 values) can be found in Table 2.

Q: With CCOC(=O)c1ccc(S(=O)(=O)N(CCN(CC)CC)c2ccc3c(c2)nc(CCc2ccc(C(=N)N)cc2)n3C)cc1 [Example 1, N-{2-[2-(4-amidinophenyl)-ethyl]-1-methyl-benzimidazol-5-yl}-N-diethylaminoethyl-(4-ethoxycarbonyl-benzenesulphonamide)-hydrochloride] as the molecule, how does the IC50 read?
A: Its IC50 is 9.7 nM.

Q: Which IC50 does the source give for CCN(CC)CCN(c1ccc2c(c1)nc(CCc1ccc(C(=N)N)cc1)n2C)S(=O)(=O)c1cccc(Br)c1 [Example 3, N-{2-[2-(4-amidinophenyl)-ethyl]-1-methyl-benzimidazol-5-yl}-N-diethylaminoethyl-(3-bromo-benzenesulphonamide)-hydrochloride] here?
A: The IC50 was 17 nM.

Q: Which IC50 does the source give for CCN(CC)CCN(c1ccc2c(c1)nc(CCc1ccc(C(=N)N)cc1)n2C)S(=O)(=O)c1ccc([N+](=O)[O-])cc1 [Example 4, N-{2-[2-(4-amidinophenyl)-ethyl]-1-methyl-benzimidazol-5-yl}-N-diethylaminoethyl-(4-nitro-benzenesulphonamide)-hydrochloride] here?
A: The IC50 was 23 nM.

Q: Which IC50 does the source give for CCN(CC)CCN(c1ccc2c(c1)nc(CCc1ccc(C(=N)N)cc1)n2C)S(=O)(=O)c1cccc(OC)c1 [Example 5, N-{2-[2-(4-amidinophenyl)-ethyl]-1-methyl-benzimidazol-5-yl}-N-diethylaminoethyl-(3-methoxy-benzenesulphonamide)-hydrochloride] here?
A: The IC50 was 24 nM.

Q: With CCN(CC)CCN(c1ccc2c(c1)nc(CCc1ccc(C(=N)N)cc1)n2C)S(=O)(=O)c1cccc(C)c1 [Example 6, N-{2-[2-(4-amidinophenyl)-ethyl]-1-methyl-benzimidazol-5-yl}-N-diethylaminoethyl-(3-methyl-benzenesulphonamide)-hydrochloride] as the molecule, how does the IC50 read?
A: Its IC50 is 30 nM.

Q: With CCN(CC)CCN(c1ccc2c(c1)nc(CCc1ccc(C(=N)N)cc1)n2C)S(=O)(=O)c1cccc(Cl)c1 [Example 7, N-{2-[2-(4-amidinophenyl)-ethyl]-1-methyl-benzimidazol-5-yl}-N-diethylaminoethyl-(3-chloro-benzenesulphonamide)-hydrochloride] as the molecule, how does the IC50 read?
A: Its IC50 is 30 nM.

Q: Which IC50 does the source give for CCN(CC)CCN(c1ccc2c(c1)nc(CCc1ccc(C(=N)N)cc1)n2C)S(=O)(=O)c1ccc(N)cc1 [Example 8, N-{2-[2-(4-amidinophenyl)-ethyl]-1-methyl-benzimidazol-5-yl}-N-diethylaminoethyl-(4-amino-benzenesulphonamide)-tetrahydrochloride] here?
A: Its IC50 is 34 nM.

Q: For CCN(CC)CCN(c1ccc2c(c1)nc(CCc1ccc(C(=N)N)cc1)n2C)S(=O)(=O)c1ccc(NC(C)=O)cc1 [Example 9, N-{2-[2-(4-amidinophenyl)-ethyl]-1-methyl-benzimidazol-5-yl}-N-diethylaminoethyl-(4-acetylamino-benzenesulphonamide)], which IC50 is on record?
A: Its IC50 is 44 nM.

Q: With CCN(CC)CCN(c1ccc2c(c1)nc(CCc1ccc(C(=N)N)cc1)n2C)S(=O)(=O)c1cc(C(F)(F)F)cc(C(F)(F)F)c1 [Example 16, N-{2-[2-(4-amidinophenyl)-ethyl]-1-methyl-benzimidazol-5-yl}-N-2-diethylaminoethyl-[3,5-di-(trifluoromethyl)-benzenesulphonamide] dihydrochloride] as the molecule, how does the IC50 read?
A: Its IC50 is 25 nM.

Q: For CCN(CC)CCN(c1ccc2c(c1)nc(CCc1ccc(C(=N)N)cc1)n2C)S(=O)(=O)c1ccc2cc(O)ccc2c1 [Example 17, N-{2-[2-(4-amidinophenyl)-ethyl]-1-methyl-benzimidazol-5-yl}-N-2-diethylaminoethyl-(6-hydroxy-naphth-2-ylsulphonamide) dihydrochloride], which IC50 is on record?
A: The IC50 was 280 nM.

Q: Which IC50 does the source give for CCN(CC)CCN(c1ccc2c(c1)nc(CCc1ccc(C(=N)N)cc1)n2C)S(=O)(=O)c1cccc(C(F)(F)F)c1 [Example 18, N-{2-[2-(4-amidinophenyl)-ethyl]-1-methyl-benzimidazol-5-yl}-N-2-diethylaminoethyl-(3-trifluoromethyl-benzenesulphonamide) dihydrochloride] here?
A: Its IC50 is 43 nM.

Q: With CCN(CC)CCN(c1ccc2c(c1)nc(CCc1ccc(C(=N)N)cc1)n2C)S(=O)(=O)c1cccc(C(C)(C)c2ccccc2)c1 [Example 19, N-{2-[2-(4-amidinophenyl)-ethyl]-1-methyl-benzimidazol-5-yl}-N-2-diethylaminoethyl-[3-(1-methyl-1-phenyl-ethyl)-benzenesulphonamide] dihydrochloride] as the molecule, how does the IC50 read?
A: The IC50 was 8.8 nM.

Q: For CN(C)c1cccc2c(S(=O)(=O)N(CCN)c3ccc4c(c3)nc(CCc3ccc(C(=N)N)cc3)n4C)cccc12 [Example 20, N-{2-[2-(4-amidinophenyl)-ethyl]-1-methyl-benzimidazol-5-yl}-N-aminoethyl-(dansylamide) dihydrochloride], which IC50 is on record?
A: Its IC50 is 22 nM.

Q: For CCN(CC)CCN(c1ccc2c(c1)nc(CCc1ccc(C(=N)N)cc1)n2C)S(=O)(=O)c1ccc(C(C)(C)C)cc1 [Example 21, N-{2-[2-(4-amidinophenyl)-ethyl]-1-methyl-benzimidazol-5-yl}-N-diethylaminoethyl-(4-tert-butyl-benzenesulphonamide) dihydrochloride], which IC50 is on record?
A: Its IC50 is 4.1 nM.

Q: Which IC50 does the source give for CN(C)c1cccc2c(S(=O)(=O)N(Cc3ccccn3)c3ccc4c(c3)nc(CCc3ccc(C(=N)N)cc3)n4C)cccc12 [Example 22, N-{2-[2-(4-amidinophenyl)-ethyl]-1-methyl-benzimidazol-5-yl}-N-pyrid-2-ylmethyl-(dansylamide) dihydrochloride] here?
A: Its IC50 is 14 nM.

Q: For CN(C)c1cccc2c(S(=O)(=O)N(Cc3cccnc3)c3ccc4c(c3)nc(CCc3ccc(C(=N)N)cc3)n4C)cccc12 [Example 23, N-{2-[2-(4-amidinophenyl)-ethyl]-1-methyl-benzimidazol-5-yl}-N-pyrid-3-ylmethyl-(dansylamide) dihydrochloride], which IC50 is on record?
A: The IC50 was 13 nM.

Q: With CCN(CC)CCN(c1ccc2c(c1)nc(CCc1ccc(C(=N)N)cc1)n2C)S(=O)(=O)c1cccc2cccc(Cl)c12 [Example 24, N-{2-[2-(4-amidinophenyl)-ethyl]-1-methyl-benzimidazol-5-yl}-N-diethylaminoethyl-(8-chloronaphth-1-ylsulphonamide) dihydrochloride] as the molecule, how does the IC50 read?
A: Its IC50 is 13 nM.

Q: Which IC50 does the source give for CN(C)c1cccc2c(S(=O)(=O)N(Cc3ccncc3)c3ccc4c(c3)nc(CCc3ccc(C(=N)N)cc3)n4C)cccc12 [Example 25, N-{2-[2-(4-amidinophenyl)-ethyl]-1-methyl-benzimidazol-5-yl}-N-pyrid-4-ylmethyl-(dansylamide) dihydrochloride] here?
A: Its IC50 is 36 nM.

Q: With Cn1c(CCc2ccc(C(=N)N)cc2)nc2cc(N(Cc3ccccc3)S(=O)(=O)c3ccc(C(C)(C)C)cc3)ccc21 [Example 26, N-{2-[2-(4-amidinophenyl)-ethyl]-1-methyl-benzimidazol-5-yl}-N-benzyl-(4-tert-butyl-benzenesulphonamide) dihydrochloride] as the molecule, how does the IC50 read?
A: Its IC50 is 7.6 nM.

Q: Which IC50 does the source give for CCN(CC)CCN(c1ccc2c(c1)nc(CCc1ccc(C(=N)N)cc1)n2C)S(=O)(=O)c1ccc2cc(OC)ccc2c1 [Example 27, N-{2-[2-(4-amidinophenyl)-ethyl]-1-methyl-benzimidazol-5-yl}-N-diethylaminoethyl-(6-methoxy-naphth-2-ylsulphonamide) diacetate] here?
A: The IC50 was 17.3 nM.

Q: Which IC50 does the source give for CCN(CC)CCN(c1ccc2c(c1)nc(CCc1ccc(C(=N)N)cc1)n2C)S(=O)(=O)c1cccc([N+](=O)[O-])c1 [Example 28, N-{2-[2-(4-amidinophenyl)-ethyl]-1-methyl-benzimidazol-5-yl}-N-2-diethylaminoethyl-(3-nitro-benzenesulphonamide) dihydrochloride] here?
A: Its IC50 is 44 nM.

Q: For CCN(CC)CCN(c1ccc2c(c1)nc(CCc1ccc(C(=N)N)cc1)n2C)S(=O)(=O)c1cccc(N)c1 [Example 29, N-{2-[2-(4-amidinophenyl)-ethyl]-1-methyl-benzimidazol-5-yl}-N-2-diethylaminoethyl-(3-amino-benzenesulphonamide) dihydrochloride], which IC50 is on record?
A: Its IC50 is 52 nM.
